Legend:
Experiment in all cases: biochemical
Design in all cases: Invitrogen kinase panel: Z'Lyte activity (ATP at Km) or LanthaScreen competitive ATP-site binding, percent inhibition
MLK1 = biological target: T1, MLK1 (Homo sapiens, UniProt P80192)
T1 construct: gene MAP3K9

PAK1 = PAK1 (Homo sapiens, UniProt Q13153)
TYK2 = TYK2 (Homo sapiens, UniProt P29597)
p70S6K = biological target: T2, p70S6K (Homo sapiens, UniProt P23443)
T2 construct: gene RPS6KB1

Flt3 = biological target: T3, Flt3 (Homo sapiens, UniProt P36888)
T3 sequence (P36888 1-993): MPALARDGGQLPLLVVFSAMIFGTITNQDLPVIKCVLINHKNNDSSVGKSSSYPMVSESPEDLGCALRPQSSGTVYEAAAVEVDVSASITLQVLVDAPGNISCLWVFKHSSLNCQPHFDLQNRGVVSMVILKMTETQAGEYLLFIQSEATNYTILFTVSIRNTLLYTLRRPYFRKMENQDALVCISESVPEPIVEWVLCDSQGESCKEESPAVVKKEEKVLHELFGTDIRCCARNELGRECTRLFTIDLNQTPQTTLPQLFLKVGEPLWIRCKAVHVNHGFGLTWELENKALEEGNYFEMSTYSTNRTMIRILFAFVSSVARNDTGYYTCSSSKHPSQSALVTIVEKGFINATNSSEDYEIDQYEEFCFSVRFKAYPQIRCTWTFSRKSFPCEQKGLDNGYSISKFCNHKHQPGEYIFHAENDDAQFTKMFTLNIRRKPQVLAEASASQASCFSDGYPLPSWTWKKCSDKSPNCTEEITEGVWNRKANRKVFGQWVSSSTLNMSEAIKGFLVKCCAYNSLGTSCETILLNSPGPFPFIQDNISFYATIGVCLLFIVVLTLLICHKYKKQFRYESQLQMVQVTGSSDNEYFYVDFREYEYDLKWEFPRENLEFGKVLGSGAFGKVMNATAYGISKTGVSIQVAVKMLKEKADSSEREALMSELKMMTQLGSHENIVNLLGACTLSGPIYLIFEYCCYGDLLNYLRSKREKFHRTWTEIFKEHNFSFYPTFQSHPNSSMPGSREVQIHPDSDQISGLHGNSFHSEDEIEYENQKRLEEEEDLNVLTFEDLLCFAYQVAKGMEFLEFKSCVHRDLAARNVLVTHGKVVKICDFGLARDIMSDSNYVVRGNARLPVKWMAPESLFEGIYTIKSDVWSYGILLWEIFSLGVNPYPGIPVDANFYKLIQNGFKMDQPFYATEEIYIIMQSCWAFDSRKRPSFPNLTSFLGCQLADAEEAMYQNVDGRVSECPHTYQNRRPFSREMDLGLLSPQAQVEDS

Tie2 = biological target: T4, Tie2 (Homo sapiens, UniProt Q02763)
T4 construct: gene TEK

Srm = biological target: T5, Srm (Homo sapiens, UniProt Q9H3Y6)
T5 construct: gene SRMS

PRKAA1 = PRKAA1 (Homo sapiens, UniProt Q13131)
SLK = SLK (Homo sapiens, UniProt Q9H2G2)
JNK2 = biological target: T6, JNK2 (Homo sapiens, UniProt P45984)
T6 construct: gene MAPK9

RSK2 = biological target: T7, RSK2 (Homo sapiens, UniProt P51812)
T7 construct: gene RPS6KA3

EphA7 = EphA7 (Homo sapiens, UniProt Q15375)
Abl = biological target: T8, Abl (Homo sapiens, UniProt P00519)
T8 construct: gene ABL1

T6 sequence (P45984 whole entry): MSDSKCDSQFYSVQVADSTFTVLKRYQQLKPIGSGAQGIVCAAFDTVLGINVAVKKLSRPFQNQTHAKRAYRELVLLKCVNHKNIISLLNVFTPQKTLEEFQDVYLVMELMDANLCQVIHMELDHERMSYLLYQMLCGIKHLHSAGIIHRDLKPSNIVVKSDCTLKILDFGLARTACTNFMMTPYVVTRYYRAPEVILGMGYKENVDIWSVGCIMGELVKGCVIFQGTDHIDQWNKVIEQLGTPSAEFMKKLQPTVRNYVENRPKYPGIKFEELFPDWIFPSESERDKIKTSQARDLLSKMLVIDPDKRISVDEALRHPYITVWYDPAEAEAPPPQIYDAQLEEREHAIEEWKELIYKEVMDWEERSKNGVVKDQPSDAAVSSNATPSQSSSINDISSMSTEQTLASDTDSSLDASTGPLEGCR
Chain of SLK (Q9H2G2 whole entry): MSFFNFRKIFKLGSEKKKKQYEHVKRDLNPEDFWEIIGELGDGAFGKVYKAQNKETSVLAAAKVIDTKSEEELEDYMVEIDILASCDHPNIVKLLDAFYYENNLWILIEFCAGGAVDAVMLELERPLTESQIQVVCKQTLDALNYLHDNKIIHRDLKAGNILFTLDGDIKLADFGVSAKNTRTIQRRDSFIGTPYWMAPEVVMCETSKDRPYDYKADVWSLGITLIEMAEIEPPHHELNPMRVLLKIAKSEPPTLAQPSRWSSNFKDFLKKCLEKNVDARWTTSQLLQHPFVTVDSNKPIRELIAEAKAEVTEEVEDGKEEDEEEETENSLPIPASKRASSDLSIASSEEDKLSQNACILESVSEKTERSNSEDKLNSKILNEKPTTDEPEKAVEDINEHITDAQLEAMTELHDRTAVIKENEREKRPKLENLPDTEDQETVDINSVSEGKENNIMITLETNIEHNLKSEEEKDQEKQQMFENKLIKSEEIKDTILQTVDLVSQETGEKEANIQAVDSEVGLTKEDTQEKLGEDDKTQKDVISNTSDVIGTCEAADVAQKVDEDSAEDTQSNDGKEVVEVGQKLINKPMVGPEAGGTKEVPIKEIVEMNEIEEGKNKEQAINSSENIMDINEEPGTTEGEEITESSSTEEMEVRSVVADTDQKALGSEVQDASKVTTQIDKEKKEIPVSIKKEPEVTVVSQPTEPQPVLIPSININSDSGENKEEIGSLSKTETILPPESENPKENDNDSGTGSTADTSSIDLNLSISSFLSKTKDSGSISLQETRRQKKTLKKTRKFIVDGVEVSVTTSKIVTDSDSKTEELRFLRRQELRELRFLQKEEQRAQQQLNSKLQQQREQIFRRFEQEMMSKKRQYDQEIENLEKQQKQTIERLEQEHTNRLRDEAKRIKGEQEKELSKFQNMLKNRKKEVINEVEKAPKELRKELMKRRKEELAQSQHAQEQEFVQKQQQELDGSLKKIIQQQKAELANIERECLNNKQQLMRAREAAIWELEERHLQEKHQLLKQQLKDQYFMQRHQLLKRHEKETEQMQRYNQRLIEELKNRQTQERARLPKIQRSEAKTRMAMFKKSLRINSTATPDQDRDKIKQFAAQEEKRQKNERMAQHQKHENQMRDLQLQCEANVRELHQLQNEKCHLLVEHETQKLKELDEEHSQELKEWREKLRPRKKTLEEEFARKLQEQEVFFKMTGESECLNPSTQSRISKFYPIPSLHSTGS
T4 sequence (Q02763 whole entry): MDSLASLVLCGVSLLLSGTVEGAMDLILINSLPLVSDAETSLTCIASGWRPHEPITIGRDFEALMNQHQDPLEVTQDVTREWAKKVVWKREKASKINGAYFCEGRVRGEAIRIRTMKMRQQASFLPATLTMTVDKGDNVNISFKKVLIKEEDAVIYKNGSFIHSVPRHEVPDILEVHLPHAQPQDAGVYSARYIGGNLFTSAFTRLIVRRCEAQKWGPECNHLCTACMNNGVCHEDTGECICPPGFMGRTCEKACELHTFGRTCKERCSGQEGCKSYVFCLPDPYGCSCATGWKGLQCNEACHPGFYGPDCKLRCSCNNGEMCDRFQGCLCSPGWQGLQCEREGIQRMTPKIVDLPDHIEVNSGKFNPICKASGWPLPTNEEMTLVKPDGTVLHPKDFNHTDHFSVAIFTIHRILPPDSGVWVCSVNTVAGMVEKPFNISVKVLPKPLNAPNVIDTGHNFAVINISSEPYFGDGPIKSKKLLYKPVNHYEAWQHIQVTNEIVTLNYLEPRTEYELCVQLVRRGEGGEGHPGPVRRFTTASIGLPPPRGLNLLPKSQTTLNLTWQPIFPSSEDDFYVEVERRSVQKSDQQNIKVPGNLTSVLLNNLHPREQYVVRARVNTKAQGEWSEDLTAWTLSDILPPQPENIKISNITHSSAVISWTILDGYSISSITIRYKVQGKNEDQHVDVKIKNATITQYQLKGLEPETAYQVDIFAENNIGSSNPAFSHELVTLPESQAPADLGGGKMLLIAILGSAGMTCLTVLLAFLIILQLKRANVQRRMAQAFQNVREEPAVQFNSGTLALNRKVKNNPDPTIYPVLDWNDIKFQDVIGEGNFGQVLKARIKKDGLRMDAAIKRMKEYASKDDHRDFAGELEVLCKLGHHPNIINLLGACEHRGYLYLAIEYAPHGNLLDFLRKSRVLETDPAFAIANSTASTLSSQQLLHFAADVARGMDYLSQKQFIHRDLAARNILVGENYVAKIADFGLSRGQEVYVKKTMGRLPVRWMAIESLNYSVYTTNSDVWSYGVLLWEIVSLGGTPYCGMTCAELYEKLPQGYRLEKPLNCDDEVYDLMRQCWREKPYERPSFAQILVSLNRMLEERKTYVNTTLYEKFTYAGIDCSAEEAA
Chain of EphA7 (Q15375 whole entry): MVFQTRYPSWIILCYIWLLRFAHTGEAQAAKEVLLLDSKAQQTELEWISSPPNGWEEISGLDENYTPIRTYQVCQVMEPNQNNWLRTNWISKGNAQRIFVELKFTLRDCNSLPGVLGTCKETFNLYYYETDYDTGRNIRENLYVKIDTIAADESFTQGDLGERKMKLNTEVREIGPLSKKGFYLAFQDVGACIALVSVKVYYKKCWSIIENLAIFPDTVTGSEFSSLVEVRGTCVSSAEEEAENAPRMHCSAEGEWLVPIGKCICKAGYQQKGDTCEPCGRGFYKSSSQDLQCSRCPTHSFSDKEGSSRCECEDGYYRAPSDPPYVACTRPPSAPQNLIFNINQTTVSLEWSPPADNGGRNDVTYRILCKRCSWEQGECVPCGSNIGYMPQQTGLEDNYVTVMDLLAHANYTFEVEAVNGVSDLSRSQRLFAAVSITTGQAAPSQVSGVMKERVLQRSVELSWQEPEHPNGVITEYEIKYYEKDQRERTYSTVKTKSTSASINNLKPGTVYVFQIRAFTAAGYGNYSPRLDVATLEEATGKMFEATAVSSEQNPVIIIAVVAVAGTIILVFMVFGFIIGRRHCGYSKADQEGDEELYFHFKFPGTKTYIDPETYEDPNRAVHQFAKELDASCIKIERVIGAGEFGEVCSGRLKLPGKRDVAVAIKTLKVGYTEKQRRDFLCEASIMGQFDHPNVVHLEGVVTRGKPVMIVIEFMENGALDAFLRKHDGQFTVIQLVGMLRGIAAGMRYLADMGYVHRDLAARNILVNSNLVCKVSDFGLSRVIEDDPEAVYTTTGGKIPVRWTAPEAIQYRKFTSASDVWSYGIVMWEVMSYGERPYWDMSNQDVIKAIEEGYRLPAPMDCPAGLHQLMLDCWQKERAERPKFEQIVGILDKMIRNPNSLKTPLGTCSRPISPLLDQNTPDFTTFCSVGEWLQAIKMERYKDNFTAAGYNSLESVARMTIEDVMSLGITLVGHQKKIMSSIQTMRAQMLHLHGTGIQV
Chain of PAK1 (Q13153 whole entry): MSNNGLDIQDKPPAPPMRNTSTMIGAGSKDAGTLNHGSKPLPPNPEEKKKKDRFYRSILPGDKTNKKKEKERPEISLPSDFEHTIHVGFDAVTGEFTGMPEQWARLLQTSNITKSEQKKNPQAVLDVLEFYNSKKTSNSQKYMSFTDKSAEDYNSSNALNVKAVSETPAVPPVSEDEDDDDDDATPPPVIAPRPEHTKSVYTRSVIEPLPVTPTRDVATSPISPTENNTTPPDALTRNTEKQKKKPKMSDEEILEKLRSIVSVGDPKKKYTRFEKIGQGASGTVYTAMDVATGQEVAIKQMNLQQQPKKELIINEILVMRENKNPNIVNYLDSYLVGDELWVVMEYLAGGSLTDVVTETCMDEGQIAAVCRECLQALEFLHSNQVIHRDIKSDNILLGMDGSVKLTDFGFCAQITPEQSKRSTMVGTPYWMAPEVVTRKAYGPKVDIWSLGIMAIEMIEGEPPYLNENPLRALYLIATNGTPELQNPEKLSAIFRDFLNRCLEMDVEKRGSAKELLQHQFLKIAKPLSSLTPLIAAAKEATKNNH
T2 sequence (P23443 whole entry): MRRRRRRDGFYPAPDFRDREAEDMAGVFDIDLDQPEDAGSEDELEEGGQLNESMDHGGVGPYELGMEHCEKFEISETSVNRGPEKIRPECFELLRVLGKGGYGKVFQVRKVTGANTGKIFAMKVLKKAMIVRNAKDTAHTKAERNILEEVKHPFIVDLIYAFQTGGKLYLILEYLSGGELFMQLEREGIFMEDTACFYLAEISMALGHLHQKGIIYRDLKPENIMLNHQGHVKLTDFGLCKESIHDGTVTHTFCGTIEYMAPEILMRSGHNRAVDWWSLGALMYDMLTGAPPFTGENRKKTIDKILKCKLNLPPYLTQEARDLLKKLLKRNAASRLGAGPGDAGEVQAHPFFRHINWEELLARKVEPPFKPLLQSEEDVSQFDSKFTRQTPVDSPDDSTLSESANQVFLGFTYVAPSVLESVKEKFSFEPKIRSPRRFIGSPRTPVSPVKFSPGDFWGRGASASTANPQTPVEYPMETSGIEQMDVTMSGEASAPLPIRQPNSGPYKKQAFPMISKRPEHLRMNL

inhibition at 1 µM (MLK1) | inhibition at 1 µM (PAK1) | inhibition at 1 µM (TYK2) | inhibition at 1 µM (p70S6K) | inhibition at 1 µM (Flt3) | inhibition at 1 µM (Tie2) | inhibition at 1 µM (Srm) | inhibition at 1 µM (PRKAA1) | inhibition at 1 µM (SLK) | inhibition at 1 µM (JNK2) | inhibition at 1 µM (RSK2) | inhibition at 1 µM (EphA7) | inhibition at 1 µM (Abl) | Structure (SMILES)
-2.5% | 5% | -2% | -1% | 16.5% | 12.5% | 3% | 12% | 1.5% | 72% | 0% | -1% | -1.5% | CC#CC(=O)Nc1cccc2c(Oc3ncccc3-c3ccnc(N[C@H]4CCCNC4)n3)c(C)ccc12 [G-7658]
98.1% | 85.7% | 84.5% | 88.7% | 98.2% | 95.9% | 67.6% | 96.2% | 96.9% | 91.3% | 98% | 84.2% | 94.4% | O=c1cc(-c2n[nH]c3ncc(-c4c(F)cccc4F)cc23)nc(N2CCC(O)CC2)[nH]1 [G-9807]

Structure (SMILES) | inhibition at 1 µM (MLK1) | inhibition at 1 µM (PAK1) | inhibition at 1 µM (TYK2) | inhibition at 1 µM (p70S6K) | inhibition at 1 µM (Flt3) | inhibition at 1 µM (Tie2) | inhibition at 1 µM (Srm) | inhibition at 1 µM (PRKAA1) | inhibition at 1 µM (SLK) | inhibition at 1 µM (JNK2) | inhibition at 1 µM (RSK2) | inhibition at 1 µM (EphA7) | inhibition at 1 µM (Abl)
CCOC(=O)Nc1cccc2c(Oc3ncccc3-c3ccnc(N[C@H]4CCCNC4)n3)c(C)ccc12 [G-1749] | -8.5% | 7% | -3% | 2.5% | 8% | 26% | -4.5% | 0% | 10% | 79% | 3.5% | 9.5% | -7.5%

Reference: publication PMC7736581, “Activation of the IRE1 RNase through remodeling of the kinase front pocket by ATP-competitive ligands” (Nature Communications, 2020)
